Assay results published in patent US9090624B2, “Aromatic bycyclic derivatives as CXCR4 receptor modulators” (Allergan, Inc., priority 2011, dated 2015).
pIC50: −log10 of the molar value.

Biological target: T1, human CXCR4 receptor (Homo sapiens, UniProt P61073)
T1 construct: expressed in transfected cells
Experiment: Measurement of intracellular Ca+2 responses (FLIPR), antagonism of the SDF-1α response
Format: cell-based
Conditions: HEK-Gqi5 cells stably expressing human CXCR4; for pIC50: antagonism of SDF-1α at 1.9 nM (EC65), Fluo-4 calcium, FLIPR; for inhibition: percent antagonism of SDF-1α at 1.9 nM (EC65), test drug 2.44 nM to 40,000 nM
Protocol: Measurement of Intracellular Ca^+2 Responses for CXCR4 Compounds
HEK-Gqi5 cells stably expressing the human CXCR4 receptor were utilized for these studies. The growth media for the CXCR4 receptor expressing cell line was DMEM high glucose medium supplemented with 10% fetal bovine serum (FBS), 1% antibiotic-antimycotic, 50 ug/ml hygromycin B, and 400 μg/ml geneticin. Ten thousand cells per well were plated into 384-well poly-D-lysine coated plates one day prior to use. On the day of the experiment, the cells were washed twice with Hank's Balanced Salt Solution supplemented with 20 mM hepes (HBSS/hepes buffer). The cells were then dye loaded with 2 uM Fluo-4 diluted in the HBSS/Hepes buffer and incubated at 37° C. for 40 minutes. Extracellular dye was removed by washing the cell plates four times prior to placing the plates in the FLIPR (Fluorometric Imaging Plate Reader, Molecular Devices). Ligands were diluted in HBSS/Hepes buffer and prepared in 384-well microplates. The positive control, stromal-cell derived factor-1 (SDF-1α), was diluted in HBSS/Hepes buffer with 4 mg/ml fatty acid free bovine serum albumin. Two drug additions were made by the FLIPR. The first drug addition was the test drug in concentrations ranging from 2.44 nM to 40,000 nM. After this addition, fluorescent measurements were taken. Any calcium release in response to this drug addition represents agonist activity of the compounds. The second drug addition was SDF-1α at a final concentration of 1.9 nM (EC65). Fluorescence measurements were also taken after this second drug addition and were used to determine the ability of the test compounds to antagonize the SDF-1α response. Results were expressed as EC50 and efficacy values, as well as IC50 and percent antagonism values. As controls, SDF-1α (CXCR4 agonist) and AMD3100 (CXCR4 antagonist) dose-response curves were also determined in each study.

T1 sequence (P61073 whole entry): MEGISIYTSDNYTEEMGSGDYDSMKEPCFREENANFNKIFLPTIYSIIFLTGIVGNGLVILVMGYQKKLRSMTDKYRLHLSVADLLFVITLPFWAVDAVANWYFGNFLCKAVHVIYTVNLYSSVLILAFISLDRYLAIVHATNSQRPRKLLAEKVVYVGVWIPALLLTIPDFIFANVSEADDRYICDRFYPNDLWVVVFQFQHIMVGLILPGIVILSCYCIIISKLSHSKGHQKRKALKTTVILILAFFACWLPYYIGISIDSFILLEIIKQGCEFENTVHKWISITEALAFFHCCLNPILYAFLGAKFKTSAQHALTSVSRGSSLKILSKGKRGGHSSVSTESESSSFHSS

Row | pIC50 | inhibition | SMILES
1 | 6.96 | 95% | CN(C)CCNc1nc(NC2CCN(Cc3c(OCCN(C)C)cccc3N(C)C)CC2)c2sccc2n1 [Compound 2]
2 | 5.53 | 93% | COc1cccc(N(C)C)c1CN1CCC(Nc2nc(NCCN(C)C)nc3c2CCC3)CC1 [Compound 1, N^2-[2-(Dimethylamino)ethyl]-N^4-{1-[2-(dimethylamino)-6-methoxybenzyl]piperidin-4-yl}-6,7-dihydro-5H-cyclopenta[d]pyrimidine-2,4-diamine]
